#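 A five-concentration, 48-hour dose response in 96-well plates underlies each endpoint, interpolated linearly between surrounding concentrations. GI50 = concentration required for 50% inhibition of growth. At the TGI there is no net growth.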
# What was measured:
# Test in all cases: growth of human tumour cells (NCI), 48 h
# [1] = test system: SK-OV-3 ovarian
# [2] = test system: HOP-18 NSCLC
# [3] = test system: OVCAR-5 ovarian
# [4] = test system: HT29 colon
# [5] = test system: SF-539 CNS
# [6] = test system: UO-31 renal
# [7] = test system: A498 renal
# [8] = test system: ACHN renal
# [9] = test system: HOP-92 NSCLC
# [10] = test system: OVCAR-8 ovarian
# [11] = test system: SF-268 CNS
# [12] = test system: UACC-62 melanoma
# [13] = test system: K-562 leukemia
# [14] = test system: HCT-15 colon
# [15] = test system: DMS 114 small cell lung
# [16] = test system: CCRF-CEM leukemia
# [17] = test system: NCI-H23 lung
# [18] = test system: SF-295 CNS
# [19] = test system: TK-10 renal
# [20] = test system: XF 498 CNS
# [21] = test system: RXF 393 renal
# [22] = test system: SNB-75 CNS
# [23] = test system: RXF-631 renal
# [24] = test system: KM12 colon
# [25] = test system: EKVX NSCLC
# [26] = test system: U251 CNS
# [27] = test system: MOLT-4 leukemia
# [28] = test system: OVCAR-4 ovarian
# [29] = test system: KM20L2 colon
# [30] = test system: RPMI-8226 leukemia
# [31] = test system: DLD-1 colon
# [32] = test system: M19-MEL melanoma
# [33] = test system: UACC-257 melanoma
# [34] = test system: HCT-116 colon
# [35] = test system: LXFL 529 NSCLC
# [36] = test system: SK-MEL-5 melanoma
# [37] = test system: SW-620 colon
# [38] = test system: MALME-3M melanoma
# [39] = test system: OVCAR-3 ovarian
# [40] = test system: HL-60(TB) leukemia
# [41] = test system: SK-MEL-28 melanoma
# [42] = test system: LOX IMVI melanoma
# [43] = test system: A549 NSCLC
# [44] = test system: CAKI-1 renal
# [45] = test system: SNB-78 CNS
# [46] = test system: COLO 205 colon
# [47] = test system: 786-0 renal
# [48] = test system: NCI-H226 lung
# [49] = test system: HCC-2998 colon
# [50] = test system: NCI-H522 lung
# [51] = test system: HOP-62 NSCLC
# [52] = test system: M14 melanoma
# [53] = test system: IGROV1 ovarian
# [54] = test system: SNB-19 CNS
# [55] = test system: SK-MEL-2 melanoma
# [56] = test system: NCI-H460 lung
# [57] = test system: DMS 273 small cell lung
# [58] = test system: SN12C renal
compound,measurement,setting,value
CC(C)N(C(C)C)[PH+]1O[PH+](N(C(C)C)C(C)C)O[PH+](N(C(C)C)C(C)C)O[PH+](N(C(C)C)C(C)C)O1.[C-]#[O+].[C-]#[O+].[C-]#[O+].[C-]#[O+].[C-]#[O+].[C-]#[O+].[C-]#[O+].[C-]#[O+].[Mo].[Mo] (stereo unspecified),GI50,[1],> 100 µM
same,TGI,[1],> 100 µM
same,GI50,[2],> 100 µM
same,TGI,[2],> 100 µM
same,GI50,[3],> 100 µM
same,TGI,[3],> 100 µM
same,GI50,[4],> 100 µM
same,TGI,[4],> 100 µM
same,GI50,[5],> 100 µM
same,TGI,[5],> 100 µM
same,GI50,[6],> 100 µM
same,TGI,[6],> 100 µM
same,GI50,[7],> 100 µM
same,TGI,[7],> 100 µM
same,GI50,[8],> 100 µM
same,TGI,[8],> 100 µM
same,GI50,[9],> 100 µM
same,TGI,[9],> 100 µM
same,GI50,[10],> 100 µM
same,TGI,[10],> 100 µM
same,GI50,[11],> 100 µM
same,TGI,[11],> 100 µM
same,GI50,[12],> 100 µM
same,TGI,[12],> 100 µM
same,GI50,[13],> 100 µM
same,TGI,[13],> 100 µM
same,GI50,[14],> 100 µM
same,TGI,[14],> 100 µM
same,GI50,[15],> 100 µM
same,TGI,[15],> 100 µM
same,GI50,[16],> 100 µM
same,TGI,[16],> 100 µM
same,GI50,[17],> 100 µM
same,TGI,[17],> 100 µM
same,GI50,[18],> 100 µM
same,TGI,[18],> 100 µM
same,GI50,[19],> 100 µM
same,TGI,[19],> 100 µM
same,GI50,[20],> 100 µM
same,TGI,[20],> 100 µM
same,GI50,[21],> 100 µM
same,TGI,[21],> 100 µM
same,GI50,[22],> 100 µM
same,TGI,[22],> 100 µM
same,GI50,[23],> 100 µM
same,TGI,[23],> 100 µM
same,GI50,[24],> 100 µM
same,TGI,[24],> 100 µM
same,GI50,[25],> 100 µM
same,TGI,[25],> 100 µM
same,GI50,[26],> 100 µM
same,TGI,[26],> 100 µM
same,GI50,[27],> 100 µM
same,TGI,[27],> 100 µM
same,GI50,[28],> 100 µM
same,TGI,[28],> 100 µM
same,GI50,[29],> 100 µM
same,TGI,[29],> 100 µM
same,GI50,[30],> 100 µM
same,TGI,[30],> 100 µM
same,GI50,[31],> 100 µM
same,TGI,[31],> 100 µM
same,GI50,[32],> 100 µM
same,TGI,[32],> 100 µM
same,GI50,[33],> 100 µM
same,TGI,[33],> 100 µM
same,GI50,[34],> 100 µM
same,TGI,[34],> 100 µM
same,GI50,[35],> 100 µM
same,TGI,[35],> 100 µM
same,GI50,[36],> 100 µM
same,TGI,[36],> 100 µM
same,GI50,[37],> 100 µM
same,TGI,[37],> 100 µM
same,GI50,[38],> 100 µM
same,TGI,[38],> 100 µM
same,GI50,[39],> 100 µM
same,TGI,[39],> 100 µM
same,GI50,[40],> 100 µM
same,TGI,[40],> 100 µM
same,GI50,[41],> 100 µM
same,TGI,[41],> 100 µM
same,GI50,[42],> 100 µM
same,TGI,[42],> 100 µM
same,GI50,[43],> 100 µM
same,TGI,[43],> 100 µM
same,GI50,[44],> 100 µM
same,TGI,[44],> 100 µM
same,GI50,[45],> 100 µM
same,TGI,[45],> 100 µM
same,GI50,[46],> 100 µM
same,TGI,[46],> 100 µM
same,GI50,[47],> 100 µM
same,TGI,[47],> 100 µM
same,GI50,[48],> 100 µM
same,TGI,[48],> 100 µM
same,GI50,[49],> 100 µM
same,TGI,[49],> 100 µM
same,GI50,[50],> 100 µM
same,TGI,[50],> 100 µM
same,GI50,[51],> 100 µM
same,TGI,[51],> 100 µM
same,GI50,[52],> 100 µM
same,TGI,[52],> 100 µM
same,GI50,[53],> 100 µM
same,TGI,[53],> 100 µM
same,GI50,[54],> 100 µM
same,TGI,[54],> 100 µM
same,GI50,[55],> 100 µM
same,TGI,[55],> 100 µM
same,GI50,[56],> 100 µM
same,TGI,[56],> 100 µM
same,GI50,[57],> 100 µM
same,TGI,[57],> 100 µM
same,GI50,[58],> 100 µM
same,TGI,[58],> 100 µM

# From PubChem BioAssay (NCI)
